Data set [1] deals with P110 δ/Pi3K δ (Homo sapiens, UniProt O00329). The experiment in a line: Fluorescent (HTRF) determination of PI3K enzyme activity, δ isoform. Particulars: for IC50: read-out: P110 δ/Pi3K δ IC 50 nM. The format is biochemical. Also on record: inhibition: dose or concentration left out as unconfirmed. The source says: Assay 1: Fluorescent determination of PI3Kinase Kinase enzyme activity
Phosphoinositide 3 kinases (PI3K) belong to a class of lipid kinases that play a critical role in the regulation of several key cellular processes. The PI3K are capable of phosphorylating the 3-hydroxy position of phosphoinositols thereby generating second messengers involved in downstream signalling events. The homogenous time resolved fluorescence (HTRF) assay allows detection of 3,4,5-triphosphate (PIP3) formed as a result of phosphorylation of phosphotidylinositol 4,5-biphosphate (PIP2) by PI3K isoforms such as α, β, γ or δ.
PI3K isoform activity for α, β, γ or δ was determined using a PI3K human HTRF™ Assay Kit (Millipore, Billerica, Mass.) with modifications. All incubations were carried out at room temperature. […] After the initial incubation, 5 μl/well of 400 μM ATP was added and incubated for an additional 30 minutes. Reaction was terminated by adding 5 μl/well stop solution (Millipore, Billerica, Mass.). Five microliters of detection mix (Millipore, Billerica, Mass.) were then added to each well and was incubated for 6-18 h in the dark. […] Data were analyzed using Graphpad Prism (Graphpad software; San Diego Calif.) for IC50 determination. Percent inhibition was calculated based on the values for the blank and enzyme controls.

Molecules are shown by their SMILES.

Chain of P110 δ/Pi3K δ (O00329 whole entry, canonical isoform): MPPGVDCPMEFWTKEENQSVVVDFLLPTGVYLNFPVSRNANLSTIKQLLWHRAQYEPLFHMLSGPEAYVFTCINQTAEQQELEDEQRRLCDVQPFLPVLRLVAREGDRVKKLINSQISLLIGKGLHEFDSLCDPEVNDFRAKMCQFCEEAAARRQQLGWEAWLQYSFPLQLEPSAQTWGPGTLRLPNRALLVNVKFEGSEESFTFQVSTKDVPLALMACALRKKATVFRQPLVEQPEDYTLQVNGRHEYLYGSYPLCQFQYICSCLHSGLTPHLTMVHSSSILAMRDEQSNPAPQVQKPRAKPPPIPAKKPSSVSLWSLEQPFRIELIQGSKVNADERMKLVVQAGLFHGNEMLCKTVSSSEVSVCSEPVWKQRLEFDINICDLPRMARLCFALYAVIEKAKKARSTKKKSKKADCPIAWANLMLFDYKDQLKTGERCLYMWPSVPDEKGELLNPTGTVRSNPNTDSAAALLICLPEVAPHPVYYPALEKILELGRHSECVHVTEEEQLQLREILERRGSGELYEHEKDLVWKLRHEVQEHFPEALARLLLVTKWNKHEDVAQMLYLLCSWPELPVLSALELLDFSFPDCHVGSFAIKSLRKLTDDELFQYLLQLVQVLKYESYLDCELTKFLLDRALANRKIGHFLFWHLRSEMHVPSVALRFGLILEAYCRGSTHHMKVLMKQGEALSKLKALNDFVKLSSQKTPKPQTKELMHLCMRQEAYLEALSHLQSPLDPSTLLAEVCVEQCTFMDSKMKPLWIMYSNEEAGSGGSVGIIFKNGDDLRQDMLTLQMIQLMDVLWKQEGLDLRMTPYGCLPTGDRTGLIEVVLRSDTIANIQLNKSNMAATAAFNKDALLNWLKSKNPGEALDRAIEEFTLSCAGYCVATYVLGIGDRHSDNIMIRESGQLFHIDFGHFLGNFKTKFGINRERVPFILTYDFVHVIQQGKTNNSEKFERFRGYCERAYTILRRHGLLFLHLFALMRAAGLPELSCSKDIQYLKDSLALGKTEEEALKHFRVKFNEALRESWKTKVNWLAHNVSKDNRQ
Chain of P110 δ/Pi3K δ (P27986 whole entry partner, canonical isoform): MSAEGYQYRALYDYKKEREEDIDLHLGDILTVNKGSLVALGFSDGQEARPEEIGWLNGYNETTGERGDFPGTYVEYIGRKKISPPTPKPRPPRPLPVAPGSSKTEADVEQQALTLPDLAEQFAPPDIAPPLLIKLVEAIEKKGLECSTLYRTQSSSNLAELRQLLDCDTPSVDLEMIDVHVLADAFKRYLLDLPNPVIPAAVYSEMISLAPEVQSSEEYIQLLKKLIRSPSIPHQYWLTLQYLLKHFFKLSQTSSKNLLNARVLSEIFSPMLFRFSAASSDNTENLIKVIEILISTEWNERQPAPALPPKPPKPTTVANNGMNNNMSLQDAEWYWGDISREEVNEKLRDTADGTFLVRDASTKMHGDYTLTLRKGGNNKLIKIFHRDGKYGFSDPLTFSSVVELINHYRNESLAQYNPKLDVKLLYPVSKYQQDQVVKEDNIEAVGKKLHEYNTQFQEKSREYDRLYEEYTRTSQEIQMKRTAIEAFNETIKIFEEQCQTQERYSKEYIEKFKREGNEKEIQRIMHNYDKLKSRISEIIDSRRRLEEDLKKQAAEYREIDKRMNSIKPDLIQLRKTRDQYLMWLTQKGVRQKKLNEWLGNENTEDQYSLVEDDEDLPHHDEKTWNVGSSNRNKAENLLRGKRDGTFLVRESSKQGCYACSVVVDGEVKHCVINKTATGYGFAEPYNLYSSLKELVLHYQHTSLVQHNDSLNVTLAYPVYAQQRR

Turning to `O=c1c(-c2ccccc2)c(CNc2ncnc3[nH]cnc23)oc2ccccc12` [Example 43, 2-((9H-purin-6-ylamino)methyl)-3-phenyl-4H-chromen-4-one], the melting point was in the range of 155 to 158 °C. In data set [1], this compound showed an inhibition at 1 µM of under 50%.

With `CC(c1oc2ccccc2c(=O)c1-c1cccc(F)c1)n1nc(-c2cn[nH]c2)c2c(N)ncnc21` (stereo not drawn) [Example 72, 2-(1-(4-amino-3-(1H-pyrazol-4-yl)-1H-pyrazolo[3,4-d]pyrimidin-1-yl)ethyl)-3-(3-fluorophenyl)-4H-chromen-4-one], the melting point fell in the range of 223 to 226 °C. In data set [1], the inhibition at 1 µM was 50 to 100% and the IC50 was under 250 nM.

The compound `CC(c1oc2ccccc2c(=O)c1-c1cccc(F)c1)n1nc(-c2ccc(O)cc2)c2c(N)ncnc21` (stereo not drawn) [Example 88a, 2-(1-(4-amino-3-(4-hydroxyphenyl)-1H-pyrazolo[3,4-d]pyrimidin-1-yl)ethyl)-3-(3-fluorophenyl)-4H-chromen-4-one] displayed a melting point of 244 to 247 °C. Further, the inhibition in data set [1] lay in the range of 50 to 100%.

Turning to `Nc1ncnc2c1c(-c1cc(O)cc(F)c1)nn2Cc1oc2ccccc2c(=O)c1-c1ccccc1` [Example 66a, 2-((4-amino-3-(3-fluoro-5-hydroxyphenyl)-1H-pyrazolo[3,4-d]pyrimidin-1-yl)methyl)-3-phenyl-4H-chromen-4-one], the melting point was 260 to 262 °C. In data set [1], the inhibition at 1 µM is 50 to 100% and the IC50 was under 250 nM.

As for `CC(c1oc2ccccc2c(=O)c1-c1ccccc1)n1nc(-c2cn[nH]c2)c2c(N)ncnc21` (stereo not drawn) [Example 69, 2-(1-(4-amino-3-(1H-pyrazol-4-yl)-1H-pyrazolo[3,4-d]pyrimidin-1-yl)ethyl)-3-phenyl-4H-chromen-4-one], the melting point is 214 to 217 °C. This compound also had an inhibition at 1 µM in data set [1] of 50 to 100%.

In turn, `CCC(c1oc2ccccc2c(=O)c1-c1cccc(F)c1)n1cnc2c(N)ncnc21` (stereo not drawn) [Example 36, 2-(1-(6-amino-9H-purin-9-yl)propyl)-3-(3-fluorophenyl)-4H-chromen-4-one] had a melting point of 102 to 107 °C. The inhibition at 1 µM in data set [1] is under 50%.

The compound `COc1ccc(-c2nn(C(C)c3oc4ccccc4c(=O)c3-c3cccc(F)c3)c3ncnc(N)c23)cc1OC` (stereo not drawn) [Example 97, 2-(1-(4-amino-3-(3,4-dimethoxyphenyl)-1H-pyrazolo[3,4-d]pyrimidin-1-yl)ethyl)-3-(3-fluorophenyl)-4H-chromen-4-one] had a melting point of 232 to 235 °C. Also, the inhibition in data set [1] fell in the range of 50 to 100%.

`CC(=O)Nc1cccc(-c2nn(Cc3oc4ccccc4c(=O)c3-c3ccccc3)c3ncnc(N)c23)c1` [Example 65, N-(3-(4-amino-1-((4-oxo-3-phenyl-4H-chromen-2-yl)methyl)-1H-pyrazolo[3,4-d]pyrimidin-3-yl)phenyl)acetamide] showed a melting point of 122 to 123 °C. This compound also registered an inhibition at 1 µM in data set [1] of under 50%.

On to `CC(c1oc2ccccc2c(=O)c1-c1cccc(F)c1)n1nc(-c2ccc3cn[nH]c3c2)c2c(N)ncnc21` (stereo not drawn) [Example 80, 2-(1-(4-amino-3-(1H-indazol-6-yl)-1H-pyrazolo[3,4-d]pyrimidin-1-yl)ethyl)-3-(3-fluorophenyl)-4H-chromen-4-one], for which the melting point was in the range of 206 to 208 °C. The compound further showed an inhibition in data set [1] of under 50%.

The compound `CCC(c1oc2ccccc2c(=O)c1-c1ccccc1F)n1cnc2c(N)ncnc21` (stereo not drawn) [Example 35, 2-(1-(6-Amino-9H-purin-9-yl)propyl)-3-(2-fluorophenyl)-4H-chromen-4-one] had a melting point of 160 to 163 °C. The compound also returned an inhibition at 1 µM in data set [1] of under 50%.

Compound `CC(c1oc2ccccc2c(=O)c1-c1cccc(F)c1)n1ccc2c(Cl)ncnc21` (stereo not drawn) [Example 166, 2-(1-(4-Chloro-7H-pyrrolo[2,3-d]pyrimidin-7-yl)ethyl)-3-(3-fluorophenyl)-4H-chromen-4-one] registered a melting point of 71 to 75 °C. This compound also came in with an inhibition in data set [1] of under 50%.

For orientation: inhibition means the change of the read-out against control, counted positive when it falls. One may read the melting point as the temperature, or range, at which the solid turns liquid.

For the origin of these results see US9421209B2, “Kinase modulators” (Rhizen Pharmaceuticals SA, priority 2009, dated 2016).
